The results in this text go back to US20250074920A1, “MACROCYCLIC COMPOUNDS AND USE AS KINASE INHIBITORS” (BLOSSOMHILL THERAPEUTICS, INC., priority 2022, published 2025).

Experiment in all cases: KINOMEscan kinase binding assay
Assay [1] concerns the target JAK1(JH1domain-catalytic). Particulars: read-out: JAK1(JH1 domain-catalytic) Kd. The method, then:
(§1) Kinase binding assays were performed at Eurofins/DiscoveRx using the general KINOMEscan Protocol (Fabian, M. A. et al., “A small molecule-kinase interaction map for clinical kinase inhibitors,” Nat. Biotechnol. 2005, 23(3):329-36). For most assays, kinase-tagged T7 phage strains were prepared in an E. coli host derived from the BL21 strain. E. coli were grown to log-phase and infected with T7 phage and incubated with shaking at 32° C. until lysis. The lysates were centrifuged and filtered to remove cell debris. The remaining kinases were produced in HEK-293 cells and subsequently tagged with DNA for qPCR detection. Streptavidin-coated magnetic beads were treated with biotinylated small molecule ligands for 30 minutes at room temperature to generate affinity resins for kinase assays. The liganded beads were blocked with excess biotin and washed with blocking buffer (SeaBlock (Pierce), 1% BSA, 0.05% Tween 20, 1 mM DTT) to remove unbound ligand and to reduce nonspecific binding. Binding reactions were assembled by combining kinases, liganded affinity beads, and test compounds in 1× binding buffer (20% SeaBlock, 0.17×PBS, 0.05% Tween 20, 6 mM DTT). All reactions were performed in polystyrene 96-well plates in a final volume of 0.135 mL. The assay plates were incubated at room temperature with shaking for 1 hour and the affinity beads were washed with wash buffer (1×PBS, 0.05% Tween 20). The beads were then re-suspended in elution buffer (1×PBS, 0.05% Tween 20, 0.5 μM non-biotinylated affinity ligand) and incubated at room temperature with shaking for 30 minutes. The kinase concentration in the eluates was measured by qPCR. Results for compounds tested in this assay at a given concentration are reported as “% Ctrl”, where lower numbers indicate stronger binding in the matrix. % Ctrl was calculated as (test compound signal-positive control signal)/(negative control signal-positive control signal)×100. Dissociation constants (Kds) for test compound-kinase interactions were calculated by measuring the amount of kinase captured on the solid support as a function of the test compound concentration.

For assay [2], the target named is JAK1(JH2domain-pseudokinase). Particulars: read-out: JAK1(JH2 domain-pseudokinase) Kd. The protocol: as §1
The target in assay [3] is JAK2(JH1domain-catalytic). Particulars: read-out: JAK2(JH1 domain-catalytic) Kd. The method, then:
as §1

The target of assay [4] is JAK3(JH1domain-catalytic). To be noted: read-out: JAK3(JH1 domain-catalytic) Kd. The protocol: as §1
Assay [5] deals with TYK2(JH1domain-catalytic). Particulars: read-out: TYK2(JH1 domain-catalytic) Kd. The protocol: as §1
For assay [6], the target named is TYK2(JH2domain-pseudokinase). To be noted: read-out: TYK2(JH2 domain-pseudokinase) Kd. The method, then: as §1

A word on the Kd: it is the equilibrium constant for the complex coming apart. For `Cc1cc2c([nH]1)/C=C1\C(=O)Nc3c(Cl)cc(cc31)-c1c(nn(C)c1C)COC[C@@H](C)N(C)C2=O` [compound 12, [3a(4)Z,10R]-20-chloro-6,9,10,15,16-pentamethyl-10,11,13,15-tetrahydro-2H-1,17-ethenopyrazolo[4,3-m]dipyrrolo[3,2-f:3′,4′-i][1,4]oxazacyclopentadecine-3,8(5H,9H)-dione], the Kd in assay [1] is over 10000 nM; in assay [2], 120 nM; in assay [3], over 10000 nM; in assay [4] it was over 10000 nM; in assay [5], over 10000 nM; in assay [6], 1.3 nM.

For the molecule `Cc1cc2c([nH]1)/C=C1\C(=O)Nc3c(F)cc(cc31)-c1c(nn(C)c1C)COC[C@@H](C)N(C)C2=O` [compound 11, [3a(4)Z,10R]-20-fluoro-6,9,10,15,16-pentamethyl-10,11,13,15-tetrahydro-2H-1,17-ethenopyrazolo[4,3-m]dipyrrolo[3,2-f:3′,4′-i][1,4]oxazacyclopentadecine-3,8(5H,9H)-dione], the Kd in assay [1] was over 10000 nM; in assay [2], 730 nM; in assay [3] it was over 10000 nM; in assay [4], 5200 nM; in assay [5], over 10000 nM; in assay [6], 3.4 nM.

As for `Cc1cc2c([nH]1)/C=C1\C(=O)Nc3c(Cl)cc(cc31)-c1cn(C)nc1COC[C@H](C)N(C)C2=O` [compound 6, [3a(4)Z,10S]-20-chloro-6,9,10,15-tetramethyl-10,11,13,15-tetrahydro-2H-1,17-(ethanediylidene)pyrazolo[4,3-m]dipyrrolo[3,2-f:3′,4′-i][1,4]oxazacyclopentadecine-3,8(5H,9H)-dione], the Kd was over 10000 nM in assay [1]; 160 nM in assay [2]; over 10000 nM in assay [3]; over 10000 nM in assay [4]; over 10000 nM in assay [5]; 2.5 nM in assay [6].

Consider `Cc1cc2c([nH]1)/C=C1\C(=O)Nc3c(F)cc(cc31)-c1cn(C)nc1COC[C@@H](C)N(C)C2=O` [compound 13, [3a(4)Z,10R]-20-fluoro-6,9,10,15-tetramethyl-10,11,13,15-tetrahydro-2H-1,17-ethenopyrazolo[4,3-m]dipyrrolo[3,2-f:3′,4′-i][1,4]oxazacyclopentadecine-3,8(5H,9H)-dione], for which the Kd in assay [1] is over 10000 nM; in assay [2], 410 nM; in assay [3], over 10000 nM; in assay [4], over 10000 nM; in assay [5], over 10000 nM; in assay [6], 1 nM.

Regarding `Cc1nc2c([nH]1)/C=C1\C(=O)Nc3c(Cl)cc(cc31)-c1cn(C)nc1COC[C@@H](C)N(C)C2=O` [Cpd. 8, [3a(4)Z,10R]-20-chloro-6,9,10,15-tetramethyl-10,11,13,15-tetrahydro-2H-1,17-(ethanediylidene)imidazo[4,5-f]pyrazolo[4,3-m]pyrrolo[3,4-i][1,4]oxazacyclopentadecine-3,8(5H,9H)-dione], the Kd was over 10000 nM in assay [1]; over 10000 nM in assay [3]; over 10000 nM in assay [4]; over 10000 nM in assay [5]; 170 nM in assay [6].

Take `Cc1cc2c([nH]1)/C=C1\C(=O)Nc3c(Cl)cc(cc31)-c1cn(C)nc1COCCN(C)C2=O` [Cpd. 7, [3a(4)Z]-20-chloro-6,9,15-trimethyl-10,11,13,15-tetrahydro-2H-1,17-(ethanediylidene)pyrazolo[4,3-m]dipyrrolo[3,2-f:3′,4′-i][1,4]oxazacyclopentadecine-3,8(5H,9H)-dione]: the Kd in assay [1] was over 10000 nM; in assay [2], 47 nM; in assay [3], over 10000 nM; in assay [4], over 10000 nM; in assay [5], over 10000 nM; in assay [6], 0.51 nM.

`Cc1cc2c([nH]1)/C=C1\C(=O)Nc3c(C#N)cc(cc31)-c1cn(C)nc1COC[C@@H](C)N(C)C2=O` [Cpd. 10, [3a(4)Z,10R]-6,9,10,15-tetramethyl-3,8-dioxo-3,5,8,9,10,11,13,15-octahydro-2H-1,17-(ethanediylidene)pyrazolo[4,3-m]dipyrrolo[3,2-f:3′,4′-i][1,4]oxazacyclopentadecine-20-carbonitrile]: the Kd in assay [1] is over 1000 nM; in assay [3] it was over 1000 nM; in assay [4], over 1000 nM; in assay [6], 46 nM.

For `Cc1cc2c([nH]1)/C=C1\C(=O)Nc3c(Cl)cc(cc31)-c1[nH]c(C)nc1COC[C@@H](C)N(C)C2=O` [Cpd. 9, [3a(4)Z,10R]-20-chloro-6,9,10,15-tetramethyl-10,11,13,16-tetrahydro-2H-1,17-(ethanediylidene)imidazo[4,5-m]dipyrrolo[3,2-f:3′,4′-i][1,4]oxazacyclopentadecine-3,8(5H,9H)-dione], the Kd was over 10000 nM in assay [1]; 130 nM in assay [2]; over 10000 nM in assay [3]; 3100 nM in assay [4]; over 10000 nM in assay [5]; 1 nM in assay [6].
